Positions of bridges follow the written chain, without caps; N, C: chain ends. Residues, ends and D or L forms follow the SMILES beside them.
Tests used:
Assay in all cases: cell-based
[1] = target: hNav1.7 (Homo sapiens, UniProt Q15858); assay type: cell-based; conditions: IonWorks Quattro, use-dependent block, hNav1.7; read-out: IWQ Use Nav1.7
[2] = target: hNav1.5 (Homo sapiens, UniProt Q14524); conditions: IonWorks Quattro, use-dependent block, hNav1.5; read-out: IWQ Use Nav1.5
[3] = target: hNav1.3 (Homo sapiens, UniProt Q9NY46); conditions: IonWorks Quattro, use-dependent block, hNav1.3; read-out: IWQ Use Nav1.3

Sequence of hNav1.5 (Q14524 whole entry, looked up): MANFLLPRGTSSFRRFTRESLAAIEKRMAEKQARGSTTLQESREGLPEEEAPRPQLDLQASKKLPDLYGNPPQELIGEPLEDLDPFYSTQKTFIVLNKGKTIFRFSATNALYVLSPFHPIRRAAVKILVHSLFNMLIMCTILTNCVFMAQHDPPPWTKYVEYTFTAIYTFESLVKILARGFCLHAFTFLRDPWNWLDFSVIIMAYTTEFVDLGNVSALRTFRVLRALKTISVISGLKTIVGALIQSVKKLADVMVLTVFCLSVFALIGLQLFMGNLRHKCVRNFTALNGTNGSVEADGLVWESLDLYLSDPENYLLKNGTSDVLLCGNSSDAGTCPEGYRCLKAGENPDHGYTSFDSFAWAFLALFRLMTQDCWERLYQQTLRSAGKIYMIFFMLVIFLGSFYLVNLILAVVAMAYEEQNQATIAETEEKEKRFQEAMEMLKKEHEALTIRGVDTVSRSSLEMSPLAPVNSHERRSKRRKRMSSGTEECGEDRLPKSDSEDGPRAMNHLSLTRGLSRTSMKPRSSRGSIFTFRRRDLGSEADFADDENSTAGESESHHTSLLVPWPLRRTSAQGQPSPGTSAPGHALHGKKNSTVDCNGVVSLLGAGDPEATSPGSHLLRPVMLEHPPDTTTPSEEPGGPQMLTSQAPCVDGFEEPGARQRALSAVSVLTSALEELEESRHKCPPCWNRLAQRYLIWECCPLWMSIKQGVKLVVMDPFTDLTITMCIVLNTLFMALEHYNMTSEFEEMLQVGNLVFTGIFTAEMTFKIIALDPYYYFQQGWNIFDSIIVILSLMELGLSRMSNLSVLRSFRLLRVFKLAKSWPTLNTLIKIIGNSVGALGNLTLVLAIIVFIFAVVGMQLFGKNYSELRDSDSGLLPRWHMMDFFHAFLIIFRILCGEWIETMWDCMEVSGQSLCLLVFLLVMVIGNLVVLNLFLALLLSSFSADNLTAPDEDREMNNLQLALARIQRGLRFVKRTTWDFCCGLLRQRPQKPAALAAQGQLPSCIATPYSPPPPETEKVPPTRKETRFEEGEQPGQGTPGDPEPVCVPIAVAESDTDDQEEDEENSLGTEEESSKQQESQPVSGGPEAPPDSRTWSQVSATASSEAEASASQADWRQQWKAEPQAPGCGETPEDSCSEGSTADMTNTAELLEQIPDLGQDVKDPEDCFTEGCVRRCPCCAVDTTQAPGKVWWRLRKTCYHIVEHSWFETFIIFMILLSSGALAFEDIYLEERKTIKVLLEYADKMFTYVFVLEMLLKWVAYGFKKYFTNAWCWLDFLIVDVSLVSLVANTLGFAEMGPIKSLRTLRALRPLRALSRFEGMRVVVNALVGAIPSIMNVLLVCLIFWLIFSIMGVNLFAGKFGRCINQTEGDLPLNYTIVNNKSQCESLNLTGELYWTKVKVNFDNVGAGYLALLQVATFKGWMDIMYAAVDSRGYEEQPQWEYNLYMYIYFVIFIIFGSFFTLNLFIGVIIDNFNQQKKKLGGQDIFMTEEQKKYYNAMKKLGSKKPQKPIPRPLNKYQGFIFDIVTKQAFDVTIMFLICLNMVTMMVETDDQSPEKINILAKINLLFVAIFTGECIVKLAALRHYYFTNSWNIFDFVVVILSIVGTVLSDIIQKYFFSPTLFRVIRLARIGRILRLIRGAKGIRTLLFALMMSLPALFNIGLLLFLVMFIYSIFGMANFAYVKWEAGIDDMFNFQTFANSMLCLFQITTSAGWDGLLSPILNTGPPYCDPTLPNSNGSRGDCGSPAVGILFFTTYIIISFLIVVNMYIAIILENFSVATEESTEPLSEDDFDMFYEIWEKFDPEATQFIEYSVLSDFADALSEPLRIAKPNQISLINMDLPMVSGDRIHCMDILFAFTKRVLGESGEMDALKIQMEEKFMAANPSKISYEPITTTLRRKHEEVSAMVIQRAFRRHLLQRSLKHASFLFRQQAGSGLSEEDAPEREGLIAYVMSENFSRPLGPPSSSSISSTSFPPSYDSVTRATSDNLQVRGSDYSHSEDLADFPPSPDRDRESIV
Sequence of hNav1.7 (Q15858 whole entry, looked up): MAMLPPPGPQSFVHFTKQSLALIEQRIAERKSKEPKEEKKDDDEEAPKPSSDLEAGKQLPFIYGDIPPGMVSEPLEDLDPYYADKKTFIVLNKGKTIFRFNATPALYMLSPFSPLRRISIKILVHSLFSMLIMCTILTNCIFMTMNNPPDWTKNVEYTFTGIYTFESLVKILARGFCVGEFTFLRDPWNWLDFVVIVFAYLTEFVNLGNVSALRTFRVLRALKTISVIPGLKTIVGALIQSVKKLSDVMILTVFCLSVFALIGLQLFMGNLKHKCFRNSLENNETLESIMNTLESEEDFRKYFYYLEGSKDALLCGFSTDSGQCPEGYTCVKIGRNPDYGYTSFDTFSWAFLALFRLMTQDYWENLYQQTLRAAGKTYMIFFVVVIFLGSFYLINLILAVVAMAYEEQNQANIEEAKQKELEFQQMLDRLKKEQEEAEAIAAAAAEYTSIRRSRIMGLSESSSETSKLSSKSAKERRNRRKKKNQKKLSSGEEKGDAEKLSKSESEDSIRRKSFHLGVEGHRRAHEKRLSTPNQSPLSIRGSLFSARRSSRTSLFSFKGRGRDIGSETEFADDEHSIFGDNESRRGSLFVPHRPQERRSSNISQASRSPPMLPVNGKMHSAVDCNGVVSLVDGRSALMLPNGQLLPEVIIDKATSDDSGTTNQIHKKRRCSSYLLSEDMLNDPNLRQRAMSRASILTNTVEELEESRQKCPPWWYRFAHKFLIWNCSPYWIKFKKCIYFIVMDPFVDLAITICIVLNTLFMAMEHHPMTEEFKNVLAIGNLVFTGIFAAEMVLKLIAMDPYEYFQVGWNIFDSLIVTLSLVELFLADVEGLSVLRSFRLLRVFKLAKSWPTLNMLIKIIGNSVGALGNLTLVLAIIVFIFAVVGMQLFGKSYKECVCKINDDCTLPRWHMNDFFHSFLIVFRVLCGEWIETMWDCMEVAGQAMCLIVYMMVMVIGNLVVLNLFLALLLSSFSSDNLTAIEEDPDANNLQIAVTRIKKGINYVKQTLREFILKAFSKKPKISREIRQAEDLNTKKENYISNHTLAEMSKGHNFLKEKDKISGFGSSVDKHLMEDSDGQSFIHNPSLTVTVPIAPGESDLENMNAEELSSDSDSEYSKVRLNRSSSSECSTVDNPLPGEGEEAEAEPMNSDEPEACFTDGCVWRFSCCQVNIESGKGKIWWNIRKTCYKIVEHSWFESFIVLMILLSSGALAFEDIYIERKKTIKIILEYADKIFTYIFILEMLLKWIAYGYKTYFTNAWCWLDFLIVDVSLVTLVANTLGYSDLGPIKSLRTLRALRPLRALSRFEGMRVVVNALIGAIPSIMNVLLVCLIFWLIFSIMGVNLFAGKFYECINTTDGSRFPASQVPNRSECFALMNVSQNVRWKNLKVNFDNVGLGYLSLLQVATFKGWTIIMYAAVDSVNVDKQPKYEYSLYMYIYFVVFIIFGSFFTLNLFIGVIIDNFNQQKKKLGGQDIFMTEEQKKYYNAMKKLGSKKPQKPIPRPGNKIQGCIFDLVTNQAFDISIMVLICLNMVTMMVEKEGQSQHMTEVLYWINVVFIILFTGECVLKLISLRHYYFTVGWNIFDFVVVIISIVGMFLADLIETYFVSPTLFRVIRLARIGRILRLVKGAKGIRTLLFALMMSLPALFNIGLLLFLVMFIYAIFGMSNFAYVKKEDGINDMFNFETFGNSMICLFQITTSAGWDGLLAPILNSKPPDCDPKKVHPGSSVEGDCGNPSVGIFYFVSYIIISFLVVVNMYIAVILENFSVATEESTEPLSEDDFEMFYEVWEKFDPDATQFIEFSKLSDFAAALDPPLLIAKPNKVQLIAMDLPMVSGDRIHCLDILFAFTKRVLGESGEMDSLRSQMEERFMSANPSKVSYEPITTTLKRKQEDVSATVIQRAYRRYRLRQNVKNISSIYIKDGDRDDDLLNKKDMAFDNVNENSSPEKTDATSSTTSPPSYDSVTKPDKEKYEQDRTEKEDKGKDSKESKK

| Compound | IC50 [1] | IC50 [2] | IC50 [3] |
| --- | --- | --- | --- |
| CC[C@H](C)[C@@H]1NC(=O)[C@@H]2CSSC[C@@H]3NC(=O)[C@H](C(C)C)NC(=O)[C@H](CC(C)C)NC(=O)[C@H](CC(N)=O)NC(=O)[C@@H]4CCCN4C(=O)[C@H](CCCNC(=N)N)NC(=O)[C@H](CSSC[C@H](NC(=O)[C@@H](N)CC(=O)O)C(=O)N[C@@H](CC(C)C)C(=O)NCC(=O)N[C@@H](C)C(=O)N[C@@H](Cc4ccccc4)C(=O)N[C@@H](CCCNC(=N)N)C(=O)N[C@@H](CCCCN)C(=O)N2)NC(=O)[C@H](CSSC[C@@H](C(=O)N[C@@H](CCCCN)C(=O)N[C@@H](Cc2ccc(O)cc2)C(=O)N[C@H](C(=O)N[C@@H](Cc2ccccc2)C(=O)O)C(C)C)NC(=O)[C@H](Cc2c[nH]c4ccccc24)NC(=O)[C@H](CC(=O)O)NC(=O)[C@H](Cc2c[nH]cn2)NC(=O)[C@H]([C@@H](C)O)NC(=O)[C@H](CCCNC(=N)N)NC(=O)[C@H](CO)NC3=O)NC(=O)[C@H](CCCCN)NC(=O)[C@H](CC(=O)O)NC(=O)[C@H](CC(N)=O)NC(=O)[C@H](CC(=O)O)NC(=O)[C@@H]2CCCN2C1=O [compound 825] (H-DCLGAFRKCIPDNDKCCRPNLVCSRTHDWCKYVF-OH; disulfide 2-17, 9-23, 16-30) | > 5 µM | > 5 µM | > 5 µM |
| CC[C@H](C)[C@@H]1NC(=O)[C@@H]2CSSC[C@@H]3NC(=O)[C@H](C(C)C)NC(=O)[C@H](CC(C)C)NC(=O)[C@H](CC(N)=O)NC(=O)[C@@H]4CCCN4C(=O)[C@H](CCCNC(=N)N)NC(=O)[C@H](CSSC[C@H](NC(=O)[C@@H](N)CC(=O)O)C(=O)N[C@@H](CC(C)C)C(=O)NCC(=O)N[C@@H](C)C(=O)N[C@@H](Cc4ccccc4)C(=O)N[C@@H](CCCNC(=N)N)C(=O)N[C@@H](CCCCN)C(=O)N2)NC(=O)[C@H](CSSC[C@@H](C(=O)N[C@@H](CCCCN)C(=O)N[C@@H](Cc2ccc(O)cc2)C(=O)N[C@H](C(=O)N[C@@H](Cc2ccccc2)C(=O)O)C(C)C)NC(=O)[C@H](Cc2c[nH]c4ccccc24)NC(=O)[C@H](CCC(=O)O)NC(=O)[C@H](Cc2c[nH]cn2)NC(=O)[C@H]([C@@H](C)O)NC(=O)[C@H](CCCNC(=N)N)NC(=O)[C@H](CO)NC3=O)NC(=O)[C@H](CCCCN)NC(=O)[C@H](CC(=O)O)NC(=O)[C@H](CC(N)=O)NC(=O)[C@H](CC(=O)O)NC(=O)[C@@H]2CCCN2C1=O [compound 826] (H-DCLGAFRKCIPDNDKCCRPNLVCSRTHEWCKYVF-OH; disulfide 2-17, 9-23, 16-30) | > 5 µM | > 5 µM | 1.8 µM |
| CC[C@H](C)[C@@H]1NC(=O)[C@@H]2CSSC[C@@H]3NC(=O)[C@H](C(C)C)NC(=O)[C@H](CC(C)C)NC(=O)[C@H](CC(N)=O)NC(=O)[C@@H]4CCCN4C(=O)[C@H](CCCNC(=N)N)NC(=O)[C@H](CSSC[C@H](NC(=O)[C@@H](N)CC(=O)O)C(=O)N[C@@H](CC(C)C)C(=O)NCC(=O)N[C@@H](C)C(=O)N[C@@H](Cc4ccccc4)C(=O)N[C@@H](CCCNC(=N)N)C(=O)N[C@@H](CCCCN)C(=O)N2)NC(=O)[C@H](CSSC[C@@H](C(=O)N[C@@H](CCCCN)C(=O)N[C@@H](Cc2ccc(O)cc2)C(=O)N[C@H](C(=O)N[C@@H](Cc2ccccc2)C(=O)O)C(C)C)NC(=O)[C@H](Cc2c[nH]c4ccccc24)NC(=O)CNC(=O)[C@H](Cc2c[nH]cn2)NC(=O)[C@H]([C@@H](C)O)NC(=O)[C@H](CCCNC(=N)N)NC(=O)[C@H](CO)NC3=O)NC(=O)[C@H](CCCCN)NC(=O)[C@H](CC(=O)O)NC(=O)[C@H](CC(N)=O)NC(=O)[C@H](CC(=O)O)NC(=O)[C@@H]2CCCN2C1=O [compound 827] (H-DCLGAFRKCIPDNDKCCRPNLVCSRTHGWCKYVF-OH; disulfide 2-17, 9-23, 16-30) | > 5 µM | > 5 µM | > 5 µM |

Source: US9340590B2 (priority 2011, dated 2016)
